{"source": "paper PMC4018225", "about": "(Biopharmaceutics & drug disposition, 2013)", "key": {"[1]": {"conditions": "HIV infected subjects compared to healthy volunteers; cited from earlier work"}, "[2]": {"conditions": "nonHIV tx, cited from earlier work"}, "[3]": {"format": "in vivo, human", "conditions": "for AUC (weight and dose normalized) / TAC V/F: median [IQR]; for CL/F: human, whole blood, oral"}, "[4]": {"test": "Reference pharmacokinetics of CsA and TAC in nonHIV transplant patients", "format": "in vivo, human", "conditions": "nonHIV tx; average for both PI time periods"}, "[5]": {"conditions": "HIV-1 infected volunteers; concomitant use of EFV or NVP; cited from earlier work"}, "[6]": {"conditions": "co-medication EFV, wk 28, 52, 104"}, "[7]": {"conditions": "co-medication NVP, wk 28, 52, 104"}}, "note": "Like-named read-outs stand apart in the source and are kept apart here. Marks after values point to notes of the source that are not given here.", "data": [{"smiles": "Cc1ncc2n1-c1ccc(Cl)cc1C(c1ccccc1F)=NC2", "note": "[midazolam]", "values": [{"measurement": "decrease in clearance", "setting": "[1]", "result": "~ 50%"}]}, {"smiles": "C=CC[C@@H]1/C=C(\\C)C[C@H](C)C[C@H](OC)[C@H]2O[C@@](O)(C(=O)C(=O)N3CCCC[C@H]3C(=O)O[C@H](/C(C)=C/[C@@H]3CC[C@@H](O)[C@H](OC)C3)[C@H](C)[C@@H](O)CC1=O)[C@H](C)C[C@@H]2OC", "note": "[TAC, tacrolimus]", "values": [{"measurement": "TAC CL/F", "setting": "[2]", "result": 0.35, "unit": "L/h/kg"}, {"measurement": "TAC CL/V", "setting": "[2]", "result": 0.058, "unit": "h⁻¹"}, {"measurement": "TAC V/F", "setting": "[2]", "result": 6, "unit": "L/kg"}, {"measurement": "AUC (weight and dose normalized)", "setting": "[2]; wks 2–12", "result": "2000 to 5000", "unit": "ng·h/mL/mg/kg"}, {"measurement": "AUC (weight and dose normalized)", "setting": "[2]; wks 28–104", "result": "2000 to 5000", "unit": "ng·h/mL/mg/kg"}, {"measurement": "AUC (weight and dose normalized)", "setting": "[3]; +EFV, wks 2–12", "result": "2170 [936–3261] ng*hr/mL/mg/kg"}, {"measurement": "AUC (weight and dose normalized)", "setting": "[3]; +EFV, wks 28–104", "result": "1911 [1423–3071] ng*hr/mL/mg/kg"}, {"measurement": "AUC (weight and dose normalized)", "setting": "[3]; +NVP, wks 2–12", "result": "3644 [3115–5157] ng*hr/mL/mg/kg"}, {"measurement": "AUC (weight and dose normalized)", "setting": "[3]; +NVP, wks 28–104", "result": "4220 [2703–6229] ng*hr/mL/mg/kg"}, {"measurement": "AUC (weight and dose normalized)", "setting": "[3]; +PI, wks 2–12", "result": "24996 [18205–41601] ng*hr/mL/mg/kg"}, {"measurement": "AUC (weight and dose normalized)", "setting": "[3]; +PI, wks 28–104", "result": "34653 [17208–42250] ng*hr/mL/mg/kg"}, {"measurement": "TAC CL/F Ratio to PI", "setting": "[3]; [6]", "result": 18.1}, {"measurement": "TAC CL/V", "setting": "[3]; [6]", "result": 0.068, "unit": "h⁻¹"}, {"measurement": "TAC CL/V Ratio to PI", "setting": "[3]; [6]", "result": 2.33}, {"measurement": "TAC V/F Ratio to PI", "setting": "[3]; [6]", "result": 7.78}, {"measurement": "TAC V/F", "setting": "[3]; [6]", "result": "7.70 [6.22–10.70] L/kg"}, {"measurement": "TAC CL/F Ratio to PI", "setting": "[3]; co-medication EFV, wks 2–12", "result": 11.5}, {"measurement": "TAC CL/V", "setting": "[3]; co-medication EFV, wks 2–12", "result": 0.074, "unit": "h⁻¹"}, {"measurement": "TAC CL/V Ratio to PI", "setting": "[3]; co-medication EFV, wks 2–12", "result": 1.72}, {"measurement": "TAC V/F Ratio to PI", "setting": "[3]; co-medication EFV, wks 2–12", "result": 6.66}, {"measurement": "TAC V/F", "setting": "[3]; co-medication EFV, wks 2–12", "result": "6.26 [5.42–10.91] L/kg"}, {"measurement": "TAC CL/F Ratio to PI", "setting": "[3]; [7]", "result": 8.72}, {"measurement": "TAC CL/V", "setting": "[3]; [7]", "result": 0.031, "unit": "h⁻¹"}, {"measurement": "TAC CL/V Ratio to PI", "setting": "[3]; [7]", "result": 1.07}, {"measurement": "TAC V/F Ratio to PI", "setting": "[3]; [7]", "result": 8.17}, {"measurement": "TAC V/F", "setting": "[3]; [7]", "result": "8.09 [3.46–15.14] L/kg"}, {"measurement": "TAC CL/F Ratio to PI", "setting": "[3]; co-medication NVP, wks 2–12", "result": 6.85}, {"measurement": "TAC CL/V", "setting": "[3]; co-medication NVP, wks 2–12", "result": 0.056, "unit": "h⁻¹"}, {"measurement": "TAC CL/V Ratio to PI", "setting": "[3]; co-medication NVP, wks 2–12", "result": 1.31}, {"measurement": "TAC V/F Ratio to PI", "setting": "[3]; co-medication NVP, wks 2–12", "result": 5.20}, {"measurement": "TAC V/F", "setting": "[3]; co-medication NVP, wks 2–12", "result": "4.89 [2.74–6.16] L/kg"}, {"measurement": "TAC CL/F Ratio to PI", "setting": "[3]; co-medication PI, wk 28, 52", "result": 1}, {"measurement": "TAC CL/V", "setting": "[3]; co-medication PI, wk 28, 52", "result": 0.029, "unit": "h⁻¹"}, {"measurement": "TAC CL/V Ratio to PI", "setting": "[3]; co-medication PI, wk 28, 52", "result": 1}, {"measurement": "TAC V/F Ratio to PI", "setting": "[3]; co-medication PI, wk 28, 52", "result": 1}, {"measurement": "TAC V/F", "setting": "[3]; co-medication PI, wk 28, 52", "result": "0.99 [0.31–1.19] L/kg"}, {"measurement": "TAC CL/F Ratio to PI", "setting": "[3]; co-medication PI, wks 2–12", "result": 1}, {"measurement": "TAC CL/V", "setting": "[3]; co-medication PI, wks 2–12", "result": 0.043, "unit": "h⁻¹"}, {"measurement": "TAC CL/V Ratio to PI", "setting": "[3]; co-medication PI, wks 2–12", "result": 1}, {"measurement": "TAC V/F Ratio to PI", "setting": "[3]; co-medication PI, wks 2–12", "result": 1}, {"measurement": "TAC V/F", "setting": "[3]; co-medication PI, wks 2–12", "result": "0.94 [0.64–1.29] L/kg"}, {"measurement": "CL/F", "setting": "[3]; 0.003 mg/kg", "result": 0.029, "unit": "L/h/kg"}, {"measurement": "CL/F", "setting": "[3]; 0.007 mg/kg", "result": 0.04, "unit": "L/h/kg"}, {"measurement": "CL/F", "setting": "[3]; 0.046 mg/kg", "result": 0.526, "unit": "L/h/kg"}, {"measurement": "CL/F", "setting": "[3]; 0.058 mg/kg", "result": 0.461, "unit": "L/h/kg"}, {"measurement": "TAC apparent volume of distribution ratio, PI compared to EFV", "setting": "[3]; in vivo", "result": 0.15}, {"measurement": "TAC apparent volume of distribution ratio, PI compared to NVP", "setting": "[3]; in vivo", "result": 0.19}, {"measurement": "increase in drug exposure on concomitant administration with PIs", "setting": "[3]; in vivo", "result": "2–50 fold"}, {"measurement": "increase in exposure (AUC/dose) in the presence of PIs relative to NNRTIs", "setting": "[3]; in vivo", "result": "more than 10 fold"}, {"measurement": "TAC CL/F ratio, PI compared to EFV", "setting": "[3]; weeks 2–12", "result": 0.09}, {"measurement": "TAC CL/F ratio, PI compared to NVP", "setting": "[3]; weeks 2–12", "result": 0.15}, {"measurement": "TAC CL/F Ratio to PI", "setting": "[4]", "result": "(10.1) ^*"}, {"measurement": "TAC CL/V Ratio to PI", "setting": "[4]", "result": "(1.6) ^*"}, {"measurement": "TAC V/F Ratio to PI", "setting": "[4]", "result": "(6.2) ^*"}]}, {"smiles": "Cc1cccc(C)c1OCC(=O)N[C@@H](Cc1ccccc1)[C@@H](O)C[C@H](Cc1ccccc1)NC(=O)[C@H](C(C)C)N1CCCNC1=O", "note": "[lopinavir]", "values": [{"measurement": "increase in apparent oral clearance", "setting": "[5]", "result": 39, "unit": "%"}]}]}
